Measured values from patent US20160194718A1, “Compositions and Methods for Identification, Assessment, Prevention, and Treatment of Cancer Using Histone H3K27ME3 Biomarkers and Modulators” (DANA-FARBER CANCER INSTITUTE, INC., priority 2013, published 2016).

Assays:
H3K27me3 = experiment: Western blotting of B cell colonies for H3K27me3; format: cell-based, mouse
Experimental: Western blotting was performed as described in Yoda et al. (2010) Proc. Natl. Acad. Sci. U.S.A. 107:252-257. Image J (available on the World Wide Web at imagej.nih.gov/ij) was used for quantitation of immunoblots, with band intensity normalized to total H3.
(§1) GSK-J4 (KDM6A/UTX and KDM6B/JMJD3 inhibitor, catalog #M60063-2) (Kruidenier et al. (2012) Nature 488:404-408) and GSK-126 (EZH2 inhibitor, catalog #M60071-2) (McCabe et al. (2012) Nature 492:108-112) were purchased from Xcessbio. For methylcellulose experiments, at each passage DMSO, GSK-J4, or GSK-126 were added to cultures a final concentration of 1 μM. DS-ALLs (deidentified specimens obtained with informed consent under DFCI IRB protocol 05-001) were treated In vitro in quadruplicate with GSK-J4 at two-fold dilutions from 40 nM to 10 μM in RPMI with 20% calf serum supplemented with 10 ng/mL IL3, IL7, SCF, FLT3 ligand, and 50 μM beta-mercaptoethanol. After 3 days, viability was measured using CellTiter-Glo reagent and normalized to DMSO control (Promega).

wild-type B cells = experiment: Methylcellulose B cell colony forming / repassaging assay with drug; format: cell-based, mouse
Experimental: Whole bone marrow was harvested from 6-8-week-old mice, and red blood cells were lysed. Cells were plated in B cell (Methocult M3630, Stem Cell Technologies) or myeloid (Methocult M3434) methylcelluose media in gridded 35 mm dishes. Myeloid colonies were plated at 2×10^4 cells/ml per passage. B cell colonies were plated at 2×10^5 cells/ml in passage 1, and at 5×10^4 cells/ml per subsequent passage. Colonies were counted at 7 days, and colonies were then pooled and replated in the same manner.
as §1

[1] = test system: human primary macrophages; settings: 10 μM; cited from earlier work
Ts1Rhr B cells = experiment: Methylcellulose B cell colony forming / repassaging assay with drug; format: cell-based, mouse; settings: 1 μM added at each passage
Experimental: as §1, with “Whole bone marrow was harvested from 6-8-week-old mice, and red blood cells were lysed. Cells were plated in B cell (Methocult M3630, Stem Cell Technologies) or myeloid (Methocult M3434) methylcelluose media in gridded 35 mm dishes. Myeloid colonies were plated at 2×10^4 cells/ml per passage. B cell colonies were plated at 2×10^5 cells/ml in passage 1, and at 5×10^4 cells/ml per subsequent passage. Colonies were counted at 7 days, and colonies were then pooled and replated in the same manner. GSK-J4 (KDM6A/UTX” for “GSK-J4 (KDM6A/UTX”

DS-ALLs = DS-ALLs treated in vitro with GSK-J4, viability by CellTiter-Glo; format: cell-based; settings: Homo sapiens, 72 h; five DS-ALLs, 3 days, two-fold dilutions 40 nM to 10 μM, normalized to DMSO; read-out: IC50 values for GSK-J4 across a panel of DS-ALLs
Experimental: as §1

[2] = 1 μM, passage 2 colonies after 14 total days in culture

| SMILES | H3K27me3 in wild-type B cells (H3K27me3; [2]) | loss of H3K27me3 after withdrawal of compound (H3K27me3; wild-type cells, one passage (7 days) after removal) | indefinite repassaging in wild-type B cells (wild-type B cells; 1 μM added at each passage) | indefinite repassaging after withdrawal of compound (wild-type B cells; wild-type cells, withdrawal at passage 5) | lipopolysaccharide-induced proinflammatory cytokine production [1] | H3K27me3 in Ts1Rhr B cells (H3K27me3; [2]) | indefinite repassaging (Ts1Rhr B cells) | colony-forming activity (Ts1Rhr B cells; vs DMSO) | IC50 (DS-ALLs) [µM] |
| --- | --- | --- | --- | --- | --- | --- | --- | --- | --- |
| CC[C@H](C)n1cc(C)c2c(C(=O)NCc3c(C)cc(C)[nH]c3=O)cc(-c3ccc(N4CCNCC4)nc3)cc21 [GSK-126, (S)-1-(sec-butyl)-N-((4,6-dimethyl-2-oxo-1,2-dihydropyridin-3-yl)methyl)-3-methyl-6-(6-(piperazin-1-yl)pyridin-3-yl)-1H-indole-4-carboxamide] | decreased H3K27me3 | reversible | sufficient to confer indefinite repassaging | reversible | – | – | – | – | – |
| CCOC(=O)CCNc1cc(N2CCc3ccccc3CC2)nc(-c2ccccn2)n1 [GSK-J4, ethyl 3-((6-(4,5-dihydro-1H-benzo[d]azepin-3(2H)-yl)-2-(pyridin-2-yl)pyrimidin-4-yl)amino)propanoate] | – | – | – | – | reduces | increased H3K27me3 | blocked indefinite repassaging | decreased colony-forming activity | 1.4 to 2.5 |
